Laboratory results as given in US11786512B2, “Stable pharmaceutical compositions of dihydroergotamine mesylate” (Slayback Pharma LLC, priority 2019, dated 2023).
Counter-ions that a name gives are not always drawn. Like-named read-outs stand apart in the source and are kept apart here.

How the values were obtained:
[1] = Rate of epimerization of DHE mesylate as a function of pH; type: physicochemical
Text: Maintaining the pH above 5.0 in the compositions prepared according to the present invention results in a better stability profile when compared to DHE 45 maintained at a pH of 3.4-4.9.

[2] = test system: migraine; conditions: cited from earlier work

Row | SMILES | rate of epimerization ([1]; pH of less than 4.0) | rate of epimerization ([1]; pH of more than 5.0) | onset of therapeutic efficacy ([2]; intranasal) [min] | onset of therapeutic efficacy ([2]; oral or sublingual delivery) [min] | onset of action ([2]; parenteral administration)
1 | CN1C[C@H](C(=O)N[C@]2(C)O[C@@]3(O)[C@@H]4CCCN4C(=O)[C@H](Cc4ccccc4)N3C2=O)C[C@@H]2c3cccc4[nH]cc(c34)C[C@H]21 [DHE mesylate, Dihydroergotamine mesylate] | higher | significantly lesser | – | – | –
2 | CN1C[C@H](C(=O)N[C@]2(C)O[C@@]3(O)[C@@H]4CCCN4C(=O)[C@H](Cc4ccccc4)N3C2=O)C[C@@H]2c3cccc4[nH]cc(c34)C[C@H]21 [DHE, Dihydroergotamine] | – | – | 45 | 120 | less than 30 minutes
